Data on two compounds can be found in patent publication US20240415805A1 (priority 2023, published 2024).

Data set [1] relates to HOKs. Nature of the data set: HOK cell viability (Promega CellTiter-Glo). The format is cell-based, human. The note with it: 48 h. As for the experimental part: Each bar represents the mean±standard deviation of luminescence levels representing relative the number of viable cells. Data are the mean of at least three independent experiments.
To examine potential cytotoxic effects of GM, HOKs were cultured in the presence of a range of GM from 0 to 1,000 nM for 48 h and the number of viable cells in the culture was determined using Promega™ CellTiter-Glo™.
In general terms: In ATP-based viability assays light output follows the ATP content of the culture.

Data set [2] concerns Pg 33277. Nature of the data set: Antibiotic protection assay: invasion of Pg cells into human primary oral keratinocytes. The format is cell-based. The note with it: Porphyromonas gingivalis, 33277, Keratinocyte, read-out: Pg inhibited from entry into HOKs. The protocol:
Inhibition of Pg cells invasion by GM. The ability of Pg to invade oral epithelial cells was determined using an antibiotic protection assay as described^28. Human primary oral keratinocytes (HOKs, 5×10^4 cells, ScienCell® Research Laboratories) were seeded in a 24-well plate. After incubating with Pg 33277 for 1 h, HOKs were continually cultured for another 4 h in the presence of antibiotics (gentamicin (300 μg/ml) and metronidazole (200 μg/ml)) to eliminate extracellular bacteria. The HOKs were then lysed, and the internalized bacteria were plated on TSB blood agar plates. The plates were incubated anaerobically at 37° C. for 7 days, and CFUs of Pg were enumerated. […] In the presence of 40 nM GM, more than 95% of Pg were inhibited from entry into HOKs. In addition, the role of GM in Pg re-entry was tested. After exposure to Pg cells for 1 h and then antibiotic treatment for 4 h, HOKs were continuously cultured for 24 h in the presence of GM (20 nM), antibiotics, or GM and antibiotics. Intracellular Pg was determined as described^28. As expected, intracellular Pg cells moved in and out of the HOKs.

The subject of data set [3] is Pg 33277 vesicles. The note with it: 30 μM; previously reported; cited from earlier work.

Entries after “also recorded” stand apart in the source; their conditions may differ.

Consider `C=C(C)[C@@]12C[C@@H](COC(=O)c3ccccc3)[C@@]34OC5(O[C@@H]1[C@@H]3[C@@H]1O[C@]1(CO)[C@@H](O)[C@@]1(O)[C@H]4[C@H]([C@H](C)[C@@H]1OC(=O)c1ccccc1)[C@H](C)CCCCCC[C@H]5O)O2` [GM, gnidimacrin], for which, in data set [1] (GM 0 to 1,000 nM, as high as luM), the “cell viability of HOKs” value was “does not affect host cell viability; also recorded: no impact”. Further, the “highest concentration without viability effect relative to the concentration that inhibits Pg invasion” value in data set [1] (HOKs) is on record as “approximately 50 times”. Moreover, the inhibition at 0.04 µM in data set [2] was above 95%.

As to `O=C(N/N=C/c1ccc(O)c(O)c1)c1cc2ccccc2cc1O` [dynasore], the Pg vesicle invasion result in data set [3] is reported as “inhibited the vesicle invasion”.
